Patent US20110045021A1, “SUGAR IMMUNOGENS” (United Therapeutics Corporation, priority 2007, published 2011)

Assay: Binding of human sera to a glycan microarray, measured by fluorescent anti-human antibodies
Details: human sera (n=10), FIG. 1
Source text: FIG. 1 provides an analysis of binding of human sera (n=10) to a glycan microarray measured by fluorescent anti-human antibodies.
To identify carbohydrates that are naturally or inherently antigenic to the human immune system, one can screen human serum antibodies against immobilized glycans (see FIG. 1). This may reveal carbohydrates, and/or carbohydrate arrangements which are recognised as “non-self”. […] By incorporating rhamnose, or a similar antigenic mimics into the natural oligomannose structure of gp120, the inherent tolerance to the (mannose) sugars of HIV may be overcome.

Compound | antigenicity (human serum antibody reactivity against immobilized glycans)
Man(α1-2)Man(α1-2)Man(α1-3)Man [D1] | naturally antigenic
[Man(α1-2)Man(α1-6)][Man(α1-2)Man(α1-3)]Man [D2D3] | naturally antigenic
OC[C@H]1O[C@H](O)[C@@H](O)[C@@H](O)[C@@H]1O [alpha-D-Mannose] | is not
C[C@H]1O[C@H](O)[C@@H](O)[C@@H](O)[C@@H]1O [alpha-D-rhamnose, 6-deoxy-alpha-D-mannose] | antigenic sugar
